Source: US20260347843A1, “NERVOUS SYSTEM DELIVERY ENHANCER” (priority 2022, published 2026)

Assays:
[1] = tested on: GFP expression in the central nervous system; test: GFP expression from AAV9 vector in hippocampus-level coronal images after intraventricular administration; type: in vivo; conditions: coadministered with AAV9-CMV-hrGFP, TGN-073 250 μg/mouse, 3 weeks
Description: In this Example, a GFP expression AAV9 (AAV9-CMV-hrGFP) as an adeno-associated viral (AAV) vector, alone or in combination with TGN-073 (250 μg/mouse), was administered at a dose of 26× 109 vg/mouse to the left lateral ventricle of a 7-week-old ICR mouse (female). Hereinafter, the mice to which only the AAV vector was intraventricularly administered are referred to as the “AAV single administration group”, and the mice to which the AAV vector and TGN-073 were intraventricularly administered together are referred to as the “AAV/TGN-073 coadministration group”. At 3 weeks after the intraventricular administration, the mouse was subjected to perfusion fixation using 4% paraformaldehyde. The mouse was subjected to cryoprotective treatment using a solution of 10% to 30% sucrose dissolved in PBS, and then, a cut-piece having a thickness of 40 μm was produced using a microtome. Using a fluorescence microscope (VHS-7000, Keyence Corporation), the GFP fluorescence (hippocampus-level coronal image) was captured.

Malat1 RNA = Malat1 RNA expression level after intraventricular administration (target gene suppression effect); type: in vivo, mouse; conditions: 7 days
Description: Seven-week-old female ICR mice anesthetized with 2.5 to 4% isoflurane were fixed to a brain stereotaxic apparatus. Then, skin between the ears was cut open 2 to 3 cm anteroposteriorly, and perforated 1 mm leftward and 0.2 mm posteriorly from the bregma using a 1 mm diameter drill. A Hamilton syringe was filled with the nucleic acid agent. Through the perforated site, a needle was inserted approximately 3 mm deep. The ASO at a dose of 0.95 nmol (5 μg) per mouse was administered into the left lateral ventricle (n=4 to 7/group). The group to which ASO and TGN-073 were coadministered (hereinafter, the group is referred to as the “ASO/TGN-073 coadministration group”) means that ASO mixed with TGN-073 was administered. The group to which only ASO was administered (hereinafter, the group is referred to as the “ASO single administration group”) means that only ASO was administered without being mixed with TGN-073. The dose of TGN-073 in the ASO/TGN-073 coadministration group was 0.25 mg per mouse. After the intraventricular administration, the skin was sutured with a nylon thread. In addition, mice to which only TGN-073 was administered (hereinafter, the mice are referred to as the “TGN-073 administration group”) and mice to which only PBS was administered (hereinafter, the mice are referred to as the “PBS administration group”) were produced as controls.
A left hippocampus was extirpated from each of the mice at 3 hours or 7 days after the intraventricular administration. Using an IsogenI kit (GeneDesign Inc.), RNA was extracted from the left hippocampus extirpated. A cDNA was synthesized using Transcriptor Universal cDNA Master, DNase (Roche Diagnostics) in accordance with the protocol.
Next, quantitative RT-PCR was performed with TaqMan (Roche Applied Science). Primers used in quantitative RT-PCR were products designed and manufactured by Thermo Fisher Scientific Inc. (formerly known as Life Technologies Corp.) on the basis of the various numbers of genes. Amplification conditions (temperature and time) were as follows: one cycle—95 °C for 15 seconds, 60 °C for 30 seconds, and 72 °C for 1 second—was repeated 40 times. The ratio of the expression amount of Malat1 RNA to the expression amount of Actb mRNA (internal standard gene) was calculated, and a value standardized with respect to the value of the PBS-treated group was determined as a relative Malat1 RNA level.
In this Example, the ASO targeted at Malat1, and used in Example 1 (the ASO described in Table 1) was used. Performed in accordance with Example 1 were: the preparation of a nucleic acid; an in vivo experiment; and the evaluation of the intracerebral ASO concentration (the amount of the nucleic acid delivered to the brain); and the target gene suppression effect. […]

SMILES: O=S(=O)(Nc1ncccc1OCc1ccccc1)c1ccccc1 [TGN-073, N-(3-benzyloxypyridin-2-yl)-benzene-sulfonamide]
- GFP expression amount vs AAV single administration [1]: increase in the expression amount
- Range of GFP expression in the central nervous system vs AAV single administration [1]: significantly wide range
- Target gene (Malat1) suppression effect in the hippocampus vs ASO single administration (Malat1 RNA; coadministered with 2′-O-MOE-modified ASO (1.7 nmol, 12.5 μg)): an augmentation of the target gene suppression effect
- Target gene (Malat1) suppression effect in the hippocampus vs nucleic acid agent alone (Malat1 RNA; coadministered with ASO, HDO or Chol-HDO (0.95 nmol), any of the groups): marked enhancement
- Suppression effect on the Malat1 gene in the hippocampus vs ASO single administration (Malat1 RNA; coadministered with Malat1-targeting ASO (0.95 nmol), TGN-073 0.25 mg per mouse): markedly enhanced
- Target gene (Malat1) suppression effect in the lumbar cord portion vs ASO single administration (Malat1 RNA; coadministered with Malat1-targeting ASO (1.7 nmol, 12.5 μg)): marked enhancement
